In patent US10369134B2, “Nonracemic mixtures and uses thereof” (Sunovion Pharmaceuticals Inc., priority 2017, dated 2019):

Columns and labels:
Format in all cases: in vivo
healthy subjects = experiment: REM suppression polysomnography (PSG) study of (R)-amisulpride; settings: human; for decrease in the time spent in REM sleep / reduction of the portion of the night spent in REM: range is 90% confidence interval
Protocol: REM suppression was the biomarker used to determine clinically-significant levels of 5-HT7 antagonism and its pharmacodynamics. REM suppression was assessed by total time in minutes spent in REM sleep and by the latency in minutes to REM sleep. […] REM suppression in human volunteers is an established translational biomarker useful to identify doses for antidepressant effects in patients.
The primary endpoint was REM sleep suppression as determined at post dose time points in the measures of latency to REM sleep, REM sleep time in minutes, and percent decrease in REM sleep time relative to total sleep time.
The results presented in Tables 6A-6C were determined from an analysis of the date based on a linear mixed model with terms for treatment, period, and treatment sequence as fixed effects, respective baseline PSG value as a continuous covariate, and treatment-by-baseline PSG interaction, and subject nested within sequence as a random effect, the Kenward and Roger correction for the degrees of freedom and an unstructured covariance structure to model the intrasubject correlation. The abbreviations used in Tables 6A-6C are as follows: PSG=polysomnography; CI=confidence interval; LS=least-squares; REM=rapid eye movement; SE=standard error.

freely moving rats = experiment: Sleep study of 85:15 (R:S-amisulpride) and racemic amisulpride (EEG/EMG); settings: rat, p.o., R-amisulpride content of the total dose
Protocol: Groups in this study were as follows. Test compound was administered to rats in a cross-over design.
Vehicle or fixed ratio amisulpride dosing solutions were orally administered 10 min before the beginning of light phase (light phase: 10:00 AM to 10:00 PM). The individual dosing volume was 4 mL/kg. The individual dosing volume was calculated based on the animals' body weight measured on each experimental day. At least 1-week wash-out period after each treatment was provided.
The R-amisulpride and S-amisulpride were separately weighed. […]
A radio transmitter was implanted intraperitoneally in each anesthetized animal (sodium pentobarbital, 32.4 mg/kg, i.p. and medetomidine hydrochloride, 0.5 mg/kg, i.p.). […] Electromyograms (EMG) were recorded from the dorsal neck muscle. […] EEG/EMG was recorded in the home cages in a soundproof box using Dataquest A.R.T. software (Data Science International, New Brighton, Minn., USA) at a sampling rate of 500 Hz. […]
All data were expressed as a mean±SEM. Difference between 85/15 and 50/50 amisulpride at each dose in each sleep architecture (i.e. REM sleep duration, NREM sleep duration, and WAKE duration) during the first 4 hours after administration were assessed by a repeated measures one-way ANOVA, followed by post-hoc Bonferroni multiple comparison test. […]

rat = experiment: Forced Swim test; settings: 0.5 mg/kg i.p. at 24, 5 and 1 h before swim test, mean ± SE, vehicle 168±12
Protocol: The Forced Swim test (FST) is an indicator of the antidepressant-like activity of a test compound. The rat will swim before “giving up” and becoming immobile. A compound with antidepressant-like activity will decrease the time the rat is immobile.
The animals (n=90) were divided into five groups. […] In the training session, each animal was gently placed into the plastic cylinder containing 5.8 L of water set at 25±1° C. Fifteen minutes after the beginning of the training session, the animal was removed from the water. The dosing solutions were administered 15 minutes after finishing of the training.
The swim test was performed for 5 minutes in the same manner as the training session. In the swim test, the behavior of each animal was horizontally recorded using a video camera. After the swim test, animals were immediately sacrificed by inhalation of carbon dioxide.
The swim movies were handled in a blind manner to ensure that the person who measured the immobility time had no information on the treatment. An animal was judged to be immobile whenever it remained floating in the water without moving its body or forepaws except for the slight movement to maintain its posture. The total time for which the animal remained immobile was defined as the immobility time. An observer blinded to the doses measured the immobility times. The immobility time of each animal was measured to one decimal place and rounded to a whole number. Immobility time was expressed in units of seconds. In each series the means of immobility time were calculated and rounded to a whole number using. The mean and standard error (SE) for each group were calculated using the data obtained from three experimental series and rounded to a whole number. All results are represented as the mean±SE.
The data of imipramine were analyzed using t-test with a two-sided significance level of 5% (p<0.05).

For `CCN1CCC[C@@H]1CNC(=O)c1cc(S(=O)(=O)CC)c(N)cc1OC` [(R)-amisulpride, R-4-Amino-N-[(1-ethyl-2-pyrrolidinyl)methyl]-5-(ethylsulfonyl)-2-methoxybenzamide], the “decrease in REM sleep” value (healthy subjects; 340 mg (FIG. 15C)) was “about 20 minutes”, the “decrease in REM sleep” value (healthy subjects; 600 mg (FIG. 15C)) was “about 30 minutes” and the “subjects who reported adverse events” value (healthy subjects; of the 13 subjects dosed with 600 mg) was 3 subjects. For the same molecule, the “suppression of REM sleep” value (healthy subjects; single dose 600 mg) was “clinically meaningful and statistically significant suppression of REM sleep”, the “vital signs and ECGs” value (healthy subjects; single oral dose) was “normal” and the “Latency to REM Sleep, LS Mean Difference (SE) from placebo” value (healthy subjects; single oral dose 340 mg, n=20) was 28.23 (9.82) Minutes. The “REM Percent, LS Mean Difference (SE) from placebo” value (healthy subjects; single oral dose 340 mg, n=20) was −4.15 (1.09) %, the “REM Time, LS Mean Difference (SE) from placebo” value (healthy subjects; single oral dose 340 mg, n=20) was −18.45 (4.91) Minutes and the “REM Percent, LS Mean (SE)” value (healthy subjects; single oral dose 340 mg, n=20, placebo 25.69 (0.92)) was 21.55 (0.92) %. For the same molecule, the “Latency to REM Sleep, LS Mean (SE)” value (healthy subjects; single oral dose 340 mg, n=20, placebo 77.03 (9.42)) was 105.25 (9.42) Minutes, the “REM Time, LS Mean (SE)” value (healthy subjects; single oral dose 340 mg, n=20, placebo 110.05 (4.69)) was 91.60 (4.69) Minutes and the “decrease in the time spent in REM sleep” value (healthy subjects; single oral dose 340 mg) was 10 to 27 min. The “reduction of the portion of the night spent in REM” value (healthy subjects; single oral dose 340 mg) was 2-6 percentage points, the “Latency to REM Sleep, LS Mean Difference (SE) from placebo” value (healthy subjects; single oral dose 600 mg, n=13) was 20.30 (9.39) Minutes and the “REM Percent, LS Mean Difference (SE) from placebo” value (healthy subjects; single oral dose 600 mg, n=13) was −6.24 (1.45) %. For the same molecule, the “REM Time, LS Mean Difference (SE) from placebo” value (healthy subjects; single oral dose 600 mg, n=13) was −31.39 (7.99) Minutes, the “REM Percent, LS Mean (SE)” value (healthy subjects; single oral dose 600 mg, n=13, placebo 24.30 (1.14)) was 18.06 (1.14) % and the “Latency to REM Sleep, LS Mean (SE)” value (healthy subjects; single oral dose 600 mg, n=13, placebo 89.06 (7.71)) was 109.35 (7.71) Minutes. For the same molecule, the “REM Time, LS Mean (SE)” value (healthy subjects; single oral dose 600 mg, n=13, placebo 107.98 (5.65)) was 76.59 (5.65) Minutes, the “decrease in the time spent in REM sleep” value (healthy subjects; single oral dose 600 mg) was 18 to 45 min and the “reduction of the portion of the night spent in REM” value (healthy subjects; single oral dose 600 mg) was 4-9 percentage points. For the same molecule, the “tolerability” value (healthy subjects; single oral dose 340 or 600 mg) was “well tolerated”, the “dose of R-amisulpride at which REM sleep suppression was saturated” value (freely moving rats) was ≥ 50 mg/kg and the immobility time (rat) was 124 ± 12 s.
